≈ marks a conversion by molar mass, not a printed value.
Tests used:
Type in all cases: functional
Candida albicans [1] = assay: microbe, parasite or virus in culture; conditions: NHL 4019, 24 h
Description: Antifungal activity against Candida albicans NHL 4019 after 24 hrs in Sabouraud agar medium by agar dilution method

Candida albicans [2] = assay: microbe, parasite or virus in culture; conditions: NHL 4019, 24 h; remark: listed apart in the source
Description: Antifungal activity against Candida albicans NHL 4019 after 24 hrs in Yeast morphology agar medium by agar dilution method

Rhizopus arrhizus [3] = assay: microbe, parasite or virus in culture; conditions: IAM 6052, 24 h
Description: Antifungal activity against Rhizopus arrhizus IAM 6052 after 24 hrs in Sabouraud agar medium by agar dilution method

Candida albicans [4] = assay: Antifungal activity against Candida albicans MCNH2 after 24 hrs in Sabouraud agar medium by agar dilution method; conditions: MCNH2, 24 h
Aspergillus fumigatus [5] = assay: Antifungal activity against Aspergillus fumigatus IAM 2400 after 24 hrs in Yeast morphology agar medium by agar dilution method; conditions: IAM 2400, 24 h
Candida tropicalis [6] = assay: microbe, parasite or virus in culture; conditions: IAM 4924, 24 h
Description: Antifungal activity against Candida tropicalis IAM 4924 after 24 hrs in Sabouraud agar medium by agar dilution method

Candida albicans [7] = assay: microbe, parasite or virus in culture; conditions: IAM 4888, 24 h
Description: Antifungal activity against Candida albicans IAM 4888 after 24 hrs in Sabouraud agar medium by agar dilution method

Candida albicans [8] = assay: Antifungal activity against Candida albicans MCNH3 after 24 hrs in Sabouraud agar medium by agar dilution method; conditions: MCNH3, 24 h
Saccharomyces cerevisiae [9] = assay: Antifungal activity against Saccharomyces cerevisiae IAM 4500 after 24 hrs in Sabouraud agar medium by agar dilution method; conditions: IAM 4500, 24 h
Saccharomyces cerevisiae [10] = assay: microbe, parasite or virus in culture; conditions: IAM 4203, 24 h
Description: Antifungal activity against Saccharomyces cerevisiae IAM 4203 after 24 hrs in Sabouraud agar medium by agar dilution method

Candida albicans [11] = assay: Antifungal activity against Candida albicans MCNH1 after 24 hrs in Yeast morphology agar medium by agar dilution method; conditions: MCNH1, 24 h
Candida albicans [12] = assay: Antifungal activity against Candida albicans MCNH4 after 24 hrs in Yeast morphology agar medium by agar dilution method; conditions: MCNH4, 24 h
Nakaseomyces glabratus = assay: microbe, parasite or virus in culture; conditions: OUT 6189, 24 h
Description: Antifungal activity against Torulopsis glabrata OUT 6189 after 24 hrs in Sabouraud agar medium by agar dilution method

Rhizopus arrhizus [13] = assay: microbe, parasite or virus in culture; conditions: IAM 6052, 24 h; remark: listed apart in the source
Description: Antifungal activity against Rhizopus arrhizus IAM 6052 after 24 hrs in Yeast morphology agar medium by agar dilution method

Candida albicans [14] = assay: microbe, parasite or virus in culture; conditions: IAM 4888, 24 h; remark: listed apart in the source
Description: Antifungal activity against Candida albicans IAM 4888 after 24 hrs in Yeast morphology agar medium by agar dilution method

[15] = test system: Meyerozyma guilliermondii; assay: Antifungal activity against Candida guilliermondii JTD after 24 hrs in Yeast morphology agar medium by agar dilution method
Candida albicans [16] = assay: Antifungal activity against Candida albicans MCNH4 after 24 hrs in Sabouraud agar medium by agar dilution method; conditions: MCNH4, 24 h
Saccharomyces cerevisiae [17] = assay: microbe, parasite or virus in culture; conditions: IAM 4203, 24 h; remark: listed apart in the source
Description: Antifungal activity against Saccharomyces cerevisiae IAM 4203 after 24 hrs in Yeast morphology agar medium by agar dilution method

Pichia kudriavzevii [18] = assay: microbe, parasite or virus in culture; conditions: IAM 4801, 24 h
Description: Antifungal activity against Candida krusei IAM 4801 after 24 hrs in Yeast morphology agar medium by agar dilution method

[19] = test system: Meyerozyma guilliermondii; assay: Antifungal activity against Candida guilliermondii JTD after 24 hrs in Sabouraud agar medium by agar dilution method
Pichia kudriavzevii [20] = assay: microbe, parasite or virus in culture; conditions: IAM 4801, 24 h; remark: listed apart in the source
Description: Antifungal activity against Candida krusei IAM 4801 after 24 hrs in Sabouraud agar medium by agar dilution method

Candida albicans [21] = assay: Antifungal activity against Candida albicans MCNH3 after 24 hrs in Yeast morphology agar medium by agar dilution method; conditions: MCNH3, 24 h
Candida tropicalis [22] = assay: microbe, parasite or virus in culture; conditions: IAM 4924, 24 h; remark: listed apart in the source
Description: Antifungal activity against Candida tropicalis IAM 4924 after 24 hrs in Yeast morphology agar medium by agar dilution method

Aspergillus fumigatus [23] = assay: Antifungal activity against Aspergillus fumigatus IAM 2400 after 24 hrs in Sabouraud agar medium by agar dilution method; conditions: IAM 2400, 24 h
Aspergillus niger [24] = assay: Antifungal activity against Aspergillus niger NHL after 24 hrs in Sabouraud agar medium by agar dilution method
Saccharomyces cerevisiae [25] = assay: Antifungal activity against Saccharomyces cerevisiae IAM 4500 after 24 hrs in Yeast morphology agar medium by agar dilution method; conditions: IAM 4500, 24 h
Candida albicans [26] = assay: Antifungal activity against Candida albicans MCNH2 after 24 hrs in Yeast morphology agar medium by agar dilution method; conditions: MCNH2, 24 h
Aspergillus niger [27] = assay: Antifungal activity against Aspergillus niger NHL after 24 hrs in Yeast morphology agar medium by agar dilution method
Candida albicans [28] = assay: Antifungal activity against Candida albicans MCNH1 after 24 hrs in Sabouraud agar medium by agar dilution method; conditions: MCNH1, 24 h

| SMILES | MIC (Candida albicans [1]) [µg/mL] | MIC (Candida albicans [2]) [µg/mL] | MIC (Rhizopus arrhizus [3]) [µg/mL] | MIC (Candida albicans [4]) [µg/mL] | MIC (Aspergillus fumigatus [5]) [µg/mL] | MIC (Candida tropicalis [6]) [µg/mL] | MIC (Candida albicans [7]) [µg/mL] | MIC (Candida albicans [8]) [µg/mL] | MIC (Saccharomyces cerevisiae [9]) [µg/mL] | MIC (Saccharomyces cerevisiae [10]) [µg/mL] | MIC (Candida albicans [11]) [µg/mL] | MIC (Candida albicans [12]) [µg/mL] | MIC (Nakaseomyces glabratus) [µg/mL] | MIC (Rhizopus arrhizus [13]) [µg/mL] | MIC (Candida albicans [14]) [µg/mL] | MIC [15] [µg/mL] | MIC (Candida albicans [16]) [µg/mL] | MIC (Saccharomyces cerevisiae [17]) [µg/mL] | MIC (Pichia kudriavzevii [18]) [µg/mL] | MIC [19] [µg/mL] | also measured |
| --- | --- | --- | --- | --- | --- | --- | --- | --- | --- | --- | --- | --- | --- | --- | --- | --- | --- | --- | --- | --- | --- |
| CC1=CC[C@@]2(C)C[C@H](O)[C@@](O)(C(C)C)[C@@H]2CC1 | 0.8 (≈ 3.36 µM) | 0.4 (≈ 1.68 µM) | > 100 | 3.13 (≈ 13.1 µM) | 12.5 (≈ 52.4 µM) | > 100 | 12.5 (≈ 52.4 µM) | 12.5 (≈ 52.4 µM) | > 100 | 3.13 (≈ 13.1 µM) | 3.13 (≈ 13.1 µM) | 1.56 (≈ 6.54 µM) | 50 (≈ 210 µM) | > 100 | 1.56 (≈ 6.54 µM) | > 100 | 6.25 (≈ 26.2 µM) | 1.56 (≈ 6.54 µM) | 25 (≈ 105 µM) | > 100 | MIC (Pichia kudriavzevii [20]): 25 µg/mL (≈ 105 µM); MIC (Candida albicans [21]): 3.13 µg/mL (≈ 13.1 µM); MIC (Candida tropicalis [22]): 50 µg/mL (≈ 210 µM); MIC (Aspergillus fumigatus [23]): 25 µg/mL (≈ 105 µM); MIC (Aspergillus niger [24]): 100 µg/mL (≈ 420 µM); MIC (Saccharomyces cerevisiae [25]): > 100 µg/mL; MIC (Candida albicans [26]): 1.56 µg/mL (≈ 6.54 µM); MIC (Aspergillus niger [27]): 12.5 µg/mL (≈ 52.4 µM); MIC (Candida albicans [28]): 6.25 µg/mL (≈ 26.2 µM) |
| Clc1ccc(COC(Cn2ccnc2)c2ccc(Cl)cc2Cl)c(Cl)c1.O=[N+]([O-])O (stereo not drawn) [MICONAZOLE NITRATE] | 0.05 | < 0.05 | 0.4 | 6.25 | 1.56 | 12.5 | 6.25 | 3.13 | 3.13 | 6.25 | 12.5 | 6.25 | 6.25 | 0.2 | 3.13 | 3.13 | 6.25 | 1.56 | 0.8 | 6.25 | MIC (Pichia kudriavzevii [20]): 0.8 µg/mL; MIC (Candida albicans [21]): 12.5 µg/mL; MIC (Candida tropicalis [22]): 6.25 µg/mL; MIC (Aspergillus fumigatus [23]): 0.8 µg/mL; MIC (Aspergillus niger [24]): 3.13 µg/mL; MIC (Saccharomyces cerevisiae [25]): 12.5 µg/mL; MIC (Candida albicans [26]): 12.5 µg/mL; MIC (Aspergillus niger [27]): 3.13 µg/mL; MIC (Candida albicans [28]): 12.5 µg/mL |
